The values that follow come from US11384079B2, “6-5 fused rings as C5a inhibitors” (CHEMOCENTRYX, INC., priority 2017, dated 2022).

Where only a bound is given, the exact number is not on record here.

For the assay, the target named is T1, C5aR (Homo sapiens, UniProt P21730).
T1 construct: U937 cells are a monocytic cell line which express C5aR; host or cells: U937 cells (cAMP treated) or isolated neutrophils
T1 sequence (P21730 1-350): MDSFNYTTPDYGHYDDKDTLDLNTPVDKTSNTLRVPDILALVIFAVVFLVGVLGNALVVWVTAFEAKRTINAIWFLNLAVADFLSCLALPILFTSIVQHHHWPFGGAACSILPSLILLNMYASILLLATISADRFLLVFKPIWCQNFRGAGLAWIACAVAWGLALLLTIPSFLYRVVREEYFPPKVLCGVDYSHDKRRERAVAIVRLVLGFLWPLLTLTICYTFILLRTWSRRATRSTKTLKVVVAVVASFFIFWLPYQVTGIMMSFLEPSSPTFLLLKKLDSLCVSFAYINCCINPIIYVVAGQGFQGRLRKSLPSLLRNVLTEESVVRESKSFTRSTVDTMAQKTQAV
As to the kind of experiment: chemotaxis assay (C5aR mediated migration). The format is cell-based. As to conditions: migration of U937 or neutrophil cells toward C5a (0.03 nM), 1.5 hours at 37° C., read-out: Mig IC50. In short, it runs like this: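 Migration of cAMP-treated U937 cells (0.5 mM overnight), or of human or murine neutrophils, toward C5a was measured through 5 μm polycarbonate filters in HBSS with 1% FBS. SDF-1α served as a specificity control. After 1.5 h at 37 °C, lower-chamber cells were counted directly or by CyQuant.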
Regarding `Cc1cccc(OCC(C)C)c1-n1nc2c(c1-c1ccc3[nH]ccc3c1)CN(Cc1cc(Cl)ccc1C(F)(F)F)CC2` [Example 1.203], the IC50 (commonly the concentration needed to halve the response being measured) lay within 0.005 to 0.05 µM.
The same measure for `Cc1cccc(OCC(C)C)c1-n1nc2c(c1-c1ccc3[nH]cc(C)c3c1)CN(c1ncc(C(F)(F)F)cc1F)CC2` [Example 1.204]: 0.05 to 0.5 µM.
Turning to `Cc1cccc(OCC(C)C)c1-n1nc2c(c1-c1cccc3[nH]ccc13)CN(Cc1cc(Cl)ccc1C(F)(F)F)CC2` [Example 1.205], the IC50 was 0.005 to 0.05 µM.
The same measure for `Cc1cccc(OCC(C)C)c1-n1nc2c(c1-c1ccc3[nH]ccc3c1)CN(C(C)CC(F)(F)F)CC2` (centres unmarked) [Example 1.206]: 0.005 to 0.05 µM.
For the compound `CCC(CC)N1CCc2nn(-c3c(C)cccc3OCC(C)C)c(-c3ccc4[nH]ccc4c3)c2C1` [Example 1.207], the IC50 was 0.005 to 0.05 µM.
The same measure for `CCc1cccc(CC)c1-n1nc2c(c1-c1ccc3[nH]ccc3c1)CN(C1CCOCC1)CC2` [Example 1.208]: 0.05 to 0.5 µM; for `CCc1cccc(CC)c1-n1nc2c(c1-c1ccc3[nH]ccc3c1)CN(C1CCCC1)CC2` [Example 1.209]: 0.005 to 0.05 µM.
The same measure for `Cc1cccc(OCC(C)C)c1-n1nc2c(c1-c1ccc3[nH]ccc3c1)CN(c1nc(C(C)C)ns1)CC2` [Example 1.210]: 0.005 to 0.05 µM; for `CCc1cccc(CC)c1-n1nc2c(c1-c1ccc3[nH]ccc3c1)CN(C(C)C(C)C)CC2` (centres unmarked) [Example 1.211]: 0.005 to 0.05 µM; for `CCc1cccc(CC)c1-n1nc2c(c1-c1ccc3[nH]ccc3c1)CN(C(CC)CC)CC2` [Example 1.212]: < 0.005 µM.
As for `C=C(C)c1nsc(N2CCc3nn(-c4c(C)cccc4OCC(C)C)c(-c4ccc5[nH]ccc5c4)c3C2)n1` [Example 1.213], the IC50 is 0.005 to 0.05 µM.
Consider `Cc1cccc(OCC(C)C)c1-n1nc2c(c1-c1ccc3[nH]ccc3c1)CN(c1nc(Cl)ns1)CC2` [Example 1.214], for which the IC50 was 0.005 to 0.05 µM.
As to `Cc1cccc(OCC(C)C)c1-n1nc2c(c1-c1ccc3[nH]nc(C)c3c1)CN(c1ncc(C(F)(F)F)cc1F)CC2` [Example 1.215], the IC50 was > 0.5 µM.
Regarding `Cc1cccc(OCC(C)C)c1-n1nc2c(c1-c1ccc3[nH]ccc3c1)CN(c1ncc(C(F)(F)F)cc1Cl)CC2` [Example 1.216], the IC50 lay in the range of 0.005 to 0.05 µM.
As for `Cc1cccc(OCC(C)C)c1-n1nc2c(c1-c1ccnc3[nH]ccc13)CN(c1ncc(C(F)(F)F)cc1F)CC2` [Example 1.217], the IC50 was 0.05 to 0.5 µM.
The same measure for `Cc1cccc(OCC(C)C)c1-n1nc2c(c1-c1cc(F)c3[nH]ccc3c1)CN(c1ncc(C(F)(F)F)cc1F)CC2` [Example 1.218]: < 0.005 µM.
On to `FC(F)(F)c1ccccc1CN1CCc2nn(-c3c(Cl)cccc3Cl)c(-c3ccc4[nH]ccc4c3)c2C1` [Example 1.219], for which the IC50 fell in the range of 0.005 to 0.05 µM.
On to `CCc1cccc(CC)c1-n1nc2c(c1-c1ccc3[nH]cc(Cl)c3c1)CN(Cc1cc(F)ccc1Cl)CC2` [Example 1.220], for which the IC50 was in the range of 0.005 to 0.05 µM.
The same measure for `Cc1cccc(C)c1-n1nc2c(c1-c1ccc3[nH]ccc3c1)CN(Cc1ccccc1C(F)(F)F)CC2` [Example 1.221]: 0.005 to 0.05 µM; for `Cc1cccc(OCC(C)C)c1-n1nc2c(c1-c1cccc3[nH]ccc13)CN(Cc1ccccc1C(F)(F)F)CC2` [Example 1.222]: 0.005 to 0.05 µM.
On to `CCc1cccc(CC)c1-n1nc2c(c1-c1ccc3[nH]ccc3c1)CN(Cc1c(Cl)cccc1C(F)(F)F)CC2` [Example 1.223], for which the IC50 was < 0.005 µM.
The same measure for `Cc1nc2cc(-c3c4c(nn3-c3c(C)cccc3OCC(C)C)CCN(c3ncc(C(F)(F)F)cc3F)C4)ccc2[nH]1` [Example 1.224]: > 0.5 µM.
`Cc1cccc(OCC(C)C)c1-n1nc2c(c1-c1ccc3[nH]nc(N)c3c1)CN(c1ncc(C(F)(F)F)cc1F)CC2` [Example 1.225]: the IC50 is > 0.5 µM.
For `CCc1cccc(CC)c1-n1nc2c(c1-c1ccc3[nH]ccc3c1)CN(Cc1cc(Cl)ccc1C(F)(F)F)CC2` [Example 1.226], the IC50 was < 0.005 µM.
For `CCc1cccc(CC)c1-n1nc2c(c1-c1ccc3[nH]ccc3c1)CN(Cc1cc(Cl)ccc1Cl)CC2` [Example 1.227], the IC50 is < 0.005 µM.
With `Cc1cccc(OCC(C)C)c1-n1nc2c(c1-c1ccc3cc[nH]c3c1)CN(c1ncc(C(F)(F)F)cc1F)CC2` [Example 1.228], the IC50 lay within 0.05 to 0.5 µM.
In the case of `Cc1cccc(OCC(C)C)c1-n1nc2c(c1-c1cccc3[nH]ccc13)CN(c1ncc(C(F)(F)F)cc1F)CC2` [Example 1.229], the IC50 is 0.005 to 0.05 µM.
The same measure for `CCc1cccc(CC)c1-n1nc2c(c1-c1ccc3[nH]ccc3c1)CN(Cc1cc(F)ccc1Cl)CC2` [Example 1.230]: < 0.005 µM.
Regarding `CCc1cccc(CC)c1-n1nc2c(c1-c1ccc3[nH]ccc3c1)CN(Cc1ccccc1C(F)(F)F)CC2` [Example 1.231], the IC50 was < 0.005 µM.
The same measure for `Cc1cccc(OCC(C)C)c1-n1nc2c(c1-c1ccc3[nH]ccc3c1)CN(c1ncc(C(F)(F)F)cc1F)CC2` [Example 1.232]: < 0.005 µM; for `Cc1cccc(OCC(C)C)c1-n1nc2c(c1-c1ccc3[nH]ccc3c1)CN(C(C)c1ccccc1C(F)(F)F)CC2` (centres unmarked) [Example 1.233]: < 0.005 µM; for `Cc1cccc(OCC(C)C)c1-n1nc2c(c1-c1ccc3[nH]ccc3c1)CN(Cc1ccc(C(F)(F)F)cc1C(F)(F)F)CC2` [Example 1.234]: 0.005 to 0.05 µM.
The same measure for `Cc1cccc(OCC(C)C)c1-n1nc2c(c1-c1ccc3[nH]ccc3c1)CN(Cc1ccccc1C(F)(F)F)CC2` [Example 1.235]: < 0.005 µM; for `Cc1cccc(OCC(C)C)c1-n1nc2c(c1-c1ccc3cc[nH]c3c1)CN(CC(C)(C)C)CC2` [Example 1.236]: 0.05 to 0.5 µM.
Regarding `Cc1cccc(OCC(C)C)c1-n1nc2c(c1-c1ccc3[nH]ccc3c1)CN(CC(C)(C)C)CC2` [Example 1.237], the IC50 was < 0.005 µM.
As for `Cc1cccc(OCC(C)C)c1-n1nc2c(c1-c1ccc3[nH]ccc3c1)CN(C(=O)OCc1ccccc1)CC2` [Example 1.238], the IC50 was in the range of 0.005 to 0.05 µM.
The same measure for `Cc1cccc(C)c1-n1nc2c(c1-c1ccc3[nH]ccc3c1)CN(CC(C)(C)C)CC2` [Example 1.239]: 0.005 to 0.05 µM; for `Cc1cccc(C)c1-n1nc2c(c1-c1ccc3[nH]ccc3c1)CN(C(=O)OC(C)(C)C)CC2` [Example 1.240]: 0.005 to 0.05 µM.
